Source: patent US20100130604A1, “USE OF ROSMARINIC ACID IN MANUFACTURE OF MEDICAMENTS FOR TREATING OR PREVENTING HEPATIC AND RENAL DISEASES” (SHANGDONG LUYE NATURAL DRUG RESEARCH AND DEVELOPMENT CO., …, priority 2006, published 2010)

Assays:
[1] = test system: rats with diabetic nephropathy; test: Diabetic nephropathy in rats (left nephrectomy + streptozocin); format: in vivo, Sprague Dawley rats; conditions: for creatinine: serum
Description: After 1 week-long acclimation period, animals were anaesthetised with 10% chloral hydrate (0.35 mL/100 g, i.p.) and nephrectomy was exercised to the left kidney. One week later, a single dose of 1% of streptozocin solution was i.v. injected to all animals at 60 mg/kg. After 72h, blood was collected from eyepit to test blood glucose level with the above-mentioned kit. The model was considered successful when blood glucose level >16.7 mmol/L. When the model is established, 130 rats were randomly divided into 13 groups, with 10 animals in each group, namely, a normal control group, a model group, benzanapril p.o. Group at 10 mg/kg, RA i.v. groups at 2.5 mg/kg, 5 mg/kg, 25 mg/kg, 75 mg/kg, and 150 mg/kg of RA, and RA p.o. groups at 5 mg/kg, 10 mg/kg, 50 mg/kg, 150 mg/kg, and 300 mg/kg of RA. The drugs were administered once every day. Blood was collected from eyepit at week 8 and week 16 to determine serum levels of creatinine and urea nitrogen. Urinary protein excretion within 24 hours was also studied. The animals were sacrificed 24 hours after the last dose and kidney removed for histopathological examination.

CTGF mRNA = test: RT-PCR detection of CTGF mRNA expression in HSC-T6; format: cell-based; conditions: for CTGF mRNA expression rate (%): control 98.5
Description: Total RNA was extracted from the cell lysate obtained in section 2.3 according the manufacturer's instructions with UNIQ-10 column total RNA extraction kit. A UV spectrophotometer was used to measure the concentration and purity. This was repeated three times and the total RNA concentration was calculated.
Reaction system: 1 μL of RT product; 10 μL of 2×PCR Master; 1 μL of each of sense primer and anti-sense primer; added double distilled water to 20 μL.
Sense primer: 5′-[…]-3′;
Anti-sense primer: 5′-[…]-3′; primer length of 383 bp;
Internal standard GAPDH (Kangcheng Bio-tech Inc.), with sense primer as 5′-[…]-3′, anti-sense primer as 5′-[…]-3′, and length of 452 bp;
Reaction conditions: pre-denature at 94° C. for 2 min, denature at 94° C. for 45 s, anneal at 54.9° C. for 30 s, extend at 72° C. for 60 s, extend at 72° C. for 10 min after 35 cycles and detect with 1.2% agarose gel electrophoresis. Scan with gel image system and calculate the ratio of gray scale between CTGF and GAPDH as an indicator of CTGF expression.
According to the results from the MTT method, groups of 0, 10, and 50 mg/L RA were selected and subjected to RT-PCR.

SMILES: O=C(/C=C/c1ccc(O)c(O)c1)O[C@H](Cc1ccc(O)c(O)c1)C(=O)O [RA, R(+)2-{[3-(3,4-dihydroxylphenyl-(oxo-2-propenyl)oxy]3,4-dihydroxylphenylpropionic acid]}]
- 24 h urinary protein excretion ([1]; 8 weeks, i.v. 2.5 mg/kg): 20.29 ± 2.21 mg/24 h
- Blood glucose ([1]; 8 weeks, i.v. 2.5 mg/kg): 21.23 ± 5.66 mmol/L
- Serum urea nitrogen ([1]; 8 weeks, i.v. 2.5 mg/kg): 18.01 ± 1.62 mg/dL
- 24 h urinary protein excretion ([1]; 8 weeks, i.v. 5 mg/kg): 19.19 ± 2.15 mg/24 h
- Blood glucose ([1]; 8 weeks, i.v. 5 mg/kg): 21.02 ± 6.14 mmol/L
- Serum urea nitrogen ([1]; 8 weeks, i.v. 5 mg/kg): 17.91 ± 1.80 mg/dL
- 24 h urinary protein excretion ([1]; 8 weeks, i.v. 25 mg/kg): 17.59 ± 2.12 mg/24 h
- Blood glucose ([1]; 8 weeks, i.v. 25 mg/kg): 21.15 ± 5.74 mmol/L
- Serum urea nitrogen ([1]; 8 weeks, i.v. 25 mg/kg): 15.42 ± 3.36 mg/dL
- 24 h urinary protein excretion ([1]; 8 weeks, i.v. 75 mg/kg): 16.78 ± 2.52 mg/24 h
- Blood glucose ([1]; 8 weeks, i.v. 75 mg/kg): 21.03 ± 4.74 mmol/L
- Serum urea nitrogen ([1]; 8 weeks, i.v. 75 mg/kg): 14.76 ± 2.19 mg/dL
- 24 h urinary protein excretion ([1]; 8 weeks, i.v. 150 mg/kg): 16.39 ± 2.25 mg/24 h
- Blood glucose ([1]; 8 weeks, i.v. 150 mg/kg): 21.23 ± 5.54 mmol/L
- Serum urea nitrogen ([1]; 8 weeks, i.v. 150 mg/kg): 13.87 ± 1.75 mg/dL
- 24 h urinary protein excretion ([1]; 8 weeks, p.o. 5 mg/kg): 20.59 ± 2.34 mg/24 h
- Blood glucose ([1]; 8 weeks, p.o. 5 mg/kg): 21.23 ± 6.36 mmol/L
- Serum urea nitrogen ([1]; 8 weeks, p.o. 5 mg/kg): 19.37 ± 3.85 mg/dL
- 24 h urinary protein excretion ([1]; 8 weeks, p.o. 10 mg/kg): 19.11 ± 2.19 mg/24 h
- Blood glucose ([1]; 8 weeks, p.o. 10 mg/kg): 20.87 ± 6.55 mmol/L
- Serum urea nitrogen ([1]; 8 weeks, p.o. 10 mg/kg): 17.57 ± 2.70 mg/dL
- 24 h urinary protein excretion ([1]; 8 weeks, p.o. 50 mg/kg): 17.89 ± 2.64 mg/24 h
- Blood glucose ([1]; 8 weeks, p.o. 50 mg/kg): 21.07 ± 5.46 mmol/L
- Serum urea nitrogen ([1]; 8 weeks, p.o. 50 mg/kg): 15.96 ± 1.95 mg/dL
- 24 h urinary protein excretion ([1]; 8 weeks, p.o. 150 mg/kg): 17.18 ± 2.56 mg/24 h
- Blood glucose ([1]; 8 weeks, p.o. 150 mg/kg): 21.32 ± 6.44 mmol/L
- Serum urea nitrogen ([1]; 8 weeks, p.o. 150 mg/kg): 14.76 ± 2.65 mg/dL
- 24 h urinary protein excretion ([1]; 8 weeks, p.o. 300 mg/kg): 16.89 ± 2.75 mg/24 h
- Blood glucose ([1]; 8 weeks, p.o. 300 mg/kg): 20.97 ± 5.54 mmol/L
- Serum urea nitrogen ([1]; 8 weeks, p.o. 300 mg/kg): 14.42 ± 2.90 mg/dL
- 24 h urinary protein excretion ([1]; 16 weeks, i.v. 2.5 mg/kg): 60.96 ± 6.85 mg/24 h
- Blood glucose ([1]; 16 weeks, i.v. 2.5 mg/kg): 22.02 ± 5.34 mmol/L
- Serum urea nitrogen ([1]; 16 weeks, i.v. 2.5 mg/kg): 33.91 ± 3.60 mg/dL
- 24 h urinary protein excretion ([1]; 16 weeks, i.v. 5 mg/kg): 57.28 ± 8.46 mg/24 h
- Blood glucose ([1]; 16 weeks, i.v. 5 mg/kg): 22.15 ± 4.24 mmol/L
- Serum urea nitrogen ([1]; 16 weeks, i.v. 5 mg/kg): 30.42 ± 7.36 mg/dL
- 24 h urinary protein excretion ([1]; 16 weeks, i.v. 25 mg/kg): 55.34 ± 7.67 mg/24 h
- Blood glucose ([1]; 16 weeks, i.v. 25 mg/kg): 22.03 ± 4.59 mmol/L
- Serum urea nitrogen ([1]; 16 weeks, i.v. 25 mg/kg): 26.76 ± 4.19 mg/dL
- 24 h urinary protein excretion ([1]; 16 weeks, i.v. 75 mg/kg): 54.78 ± 7.96 mg/24 h
- Blood glucose ([1]; 16 weeks, i.v. 75 mg/kg): 22.35 ± 7.28 mmol/L
- Serum urea nitrogen ([1]; 16 weeks, i.v. 75 mg/kg): 23.07 ± 3.95 mg/dL
- 24 h urinary protein excretion ([1]; 16 weeks, i.v. 150 mg/kg): 54.28 ± 7.46 mg/24 h
- Blood glucose ([1]; 16 weeks, i.v. 150 mg/kg): 22.23 ± 6.24 mmol/L
- Serum urea nitrogen ([1]; 16 weeks, i.v. 150 mg/kg): 22.57 ± 3.45 mg/dL
- 24 h urinary protein excretion ([1]; 16 weeks, p.o. 5 mg/kg): 65.55 ± 8.71 mg/24 h
- Blood glucose ([1]; 16 weeks, p.o. 5 mg/kg): 22.23 ± 5.66 mmol/L
- Serum urea nitrogen ([1]; 16 weeks, p.o. 5 mg/kg): 39.37 ± 3.85 mg/dL
- 24 h urinary protein excretion ([1]; 16 weeks, p.o. 10 mg/kg): 61.33 ± 6.65 mg/24 h
- Blood glucose ([1]; 16 weeks, p.o. 10 mg/kg): 21.87 ± 5.55 mmol/L
- Serum urea nitrogen ([1]; 16 weeks, p.o. 10 mg/kg): 38.37 ± 3.85 mg/dL
- 24 h urinary protein excretion ([1]; 16 weeks, p.o. 50 mg/kg): 57.28 ± 8.46 mg/24 h
- Blood glucose ([1]; 16 weeks, p.o. 50 mg/kg): 22.07 ± 4.46 mmol/L
- Serum urea nitrogen ([1]; 16 weeks, p.o. 50 mg/kg): 34.57 ± 5.60 mg/dL
- 24 h urinary protein excretion ([1]; 16 weeks, p.o. 150 mg/kg): 56.28 ± 8.76 mg/24 h
- Blood glucose ([1]; 16 weeks, p.o. 150 mg/kg): 21.32 ± 6.34 mmol/L
- Serum urea nitrogen ([1]; 16 weeks, p.o. 150 mg/kg): 28.96 ± 3.95 mg/dL
- 24 h urinary protein excretion ([1]; 16 weeks, p.o. 300 mg/kg): 55.78 ± 9.46 mg/24 h
- Blood glucose ([1]; 16 weeks, p.o. 300 mg/kg): 21.97 ± 5.34 mmol/L
- Serum urea nitrogen ([1]; 16 weeks, p.o. 300 mg/kg): 27.76 ± 5.30 mg/dL
- kidney pathological examination ([1]; RA treated groups vs model group): fewer lesions than the model group in a dose-dependent manner
- creatinine ([1]; 8 weeks, i.v. 2.5 mg/kg): 0.91 ± 0.12 mg/dL
- creatinine ([1]; 8 weeks, i.v. 5 mg/kg): 0.90 ± 0.09 mg/dL
- creatinine ([1]; 8 weeks, i.v. 25 mg/kg): 0.75 ± 0.18 mg/dL
- creatinine ([1]; 8 weeks, i.v. 75 mg/kg): 0.72 ± 0.15 mg/dL
- creatinine ([1]; 8 weeks, i.v. 150 mg/kg): 0.69 ± 0.11 mg/dL
- creatinine ([1]; 8 weeks, p.o. 5 mg/kg): 0.96 ± 0.09 mg/dL
- creatinine ([1]; 8 weeks, p.o. 10 mg/kg): 0.88 ± 0.15 mg/dL
- creatinine ([1]; 8 weeks, p.o. 50 mg/kg): 0.77 ± 0.13 mg/dL
- creatinine ([1]; 8 weeks, p.o. 150 mg/kg): 0.75 ± 0.12 mg/dL
- creatinine ([1]; 8 weeks, p.o. 300 mg/kg): 1.40 ± 0.28 mg/dL
- creatinine ([1]; 16 weeks, i.v. 2.5 mg/kg): 1.60 ± 0.18 mg/dL
- creatinine ([1]; 16 weeks, i.v. 5 mg/kg): 1.52 ± 0.37 mg/dL
- creatinine ([1]; 16 weeks, i.v. 25 mg/kg): 1.32 ± 0.28 mg/dL
- creatinine ([1]; 16 weeks, i.v. 75 mg/kg): 1.26 ± 0.28 mg/dL
- creatinine ([1]; 16 weeks, i.v. 150 mg/kg): 1.20 ± 0.22 mg/dL
- creatinine ([1]; 16 weeks, p.o. 5 mg/kg): 1.97 ± 0.19 mg/dL
- creatinine ([1]; 16 weeks, p.o. 10 mg/kg): 1.92 ± 0.19 mg/dL
- creatinine ([1]; 16 weeks, p.o. 50 mg/kg): 1.77 ± 0.28 mg/dL
- creatinine ([1]; 16 weeks, p.o. 150 mg/kg): 1.53 ± 0.28 mg/dL
- creatinine ([1]; 16 weeks, p.o. 300 mg/kg): 1.50 ± 0.26 mg/dL
- serum creatinine, urea nitrogen, 24-hour urinary protein excretion ([1]; week 8 and week 16, i.v. 2.5, 5, 25, 75, 150 mg/kg, p.o. 5, 10, 50, 150, 300 mg/kg): can all significantly reduce serum creatinine and urea nitrogen levels as well as 24-hour urinary protein excretion
- CTGF mRNA expression rate (%) (CTGF mRNA; 10 mg/L): 71.2 ± 8.7 %
- CTGF mRNA expression rate (%) (CTGF mRNA; 50 mg/L): 63.2 ± 9.2 %
- CTGF mRNA expression in HSC-T6 (CTGF mRNA; 10 and 50 mg/L): significant inhibition on CTGF mRNA expression
